Measurements from ChEMBL document CHEMBL4513146, “CO-ADD screening of Karazin Kharkiv National University (Ukraine) compounds”.

Key:
Candida albicans = assay: microbe, parasite or virus in culture; conditions: ATCC 90028, ASSAY_TEST Inhibition of Fungal Growth, detection method Absorption (OD530)
Description: Antifungal activity against Candida albicans ATCC 90028 (CO-ADD:FG_001); MIC in YNB media using NBS plates, by OD630

Staphylococcus aureus = assay: microbe, parasite or virus in culture; conditions: ATCC 43300, 18 h, ASSAY_TEST Inhibition of Bacterial Growth, detection method Absorption (OD600), MEDIA CAMHB, plate type 384well, NBS, CORNING #3640
Description: Antibacterial activity against Staphylococcus aureus MRSA ATCC 43300 (CO-ADD:GP_020); MIC in CAMBH media, using NBS plates, by OD(600)

Acinetobacter baumannii = assay: microbe, parasite or virus in culture; conditions: ATCC 19606, 18 h, ASSAY_TEST Inhibition of Bacterial Growth, detection method Absorption (OD600), MEDIA CAMHB, plate type 384well, NBS, CORNING #3640
Description: Antibacterial activity against Acinetobacter baumannii ATCC 19606 (CO-ADD:GN_034); MIC in CAMBH media using NBS plates, by OD600

Escherichia coli = assay: microbe, parasite or virus in culture; conditions: ATCC 25922, 18 h, ASSAY_TEST Inhibition of Bacterial Growth, detection method Absorption (OD600), MEDIA CAMHB, plate type 384well, NBS, CORNING #3640
Description: Antibacterial activity against Escherichia coli ATCC 25922 (CO-ADD:GN_001); MIC in CAMBH media using NBS plates, by OD(600)

Klebsiella pneumoniae = assay: microbe, parasite or virus in culture; conditions: ATCC 700603, 18 h, ASSAY_TEST Inhibition of Bacterial Growth, detection method Absorption (OD600), MEDIA CAMHB, plate type 384well, NBS, CORNING #3640
Description: Antibacterial activity against Klebsiella pneumoniae MDR ATCC 70063 (CO-ADD:GN_003); MIC in CAMBH media using NBS plates, by OD(600)

HEK293 = assay: cells; assay type: functional; conditions: Homo sapiens, ATCC CRL1573, HEK293; ASSAY_TEST Inhibition of Cell Viability; detection method Resazurin; Fluorescence (ex560/em590); MEDIA DMEM with 10% FBS; plate type 384well; TC; CORNING #3712; time 18 hr
Pseudomonas aeruginosa [1] = assay: Antibacterial activity against Pseudomonas aeruginosa PAO397 [PAO1 d(mexAB-oprM) d(mexCD-oprJ) d(mexEF-oprN) d(mexJKL) d(mexXY) d(opmH)] (CO-ADD:GN_211); MIC in CAMBH media using NBS plates, by OD(600); assay type: functional; conditions: ASSAY_TEST Inhibition of Bacterial Growth, detection method Absorption (OD600), MEDIA CAMHB, plate type 384well, CORNING #3640, time 18 hr
Pseudomonas aeruginosa [2] = assay: microbe, parasite or virus in culture; conditions: ATCC 27853, 18 h, ASSAY_TEST Inhibition of Bacterial Growth, detection method Absorption (OD600), MEDIA CAMHB, plate type 384well, NBS, CORNING #3640
Description: Antibacterial activity against Pseudomonas aeruginosa ATCC 27853 (CO-ADD:GN_042); MIC in CAMBH media using NBS plates, by OD(600)

Description for Cryptococcus neoformans: Antifungal activity against Cryptococcus neoformans H99 ATCC 208821 (CO-ADD:FG_002); MIC in YNB media using NBS plates, by Resazurin OD(600-570)

Cc1ccc(CN(c2ccc(F)c(F)c2)S(=O)(=O)c2cccn3cnnc23)cc1
> 32 µg/mL: MIC (Candida albicans) | MIC (Staphylococcus aureus) | MIC (Acinetobacter baumannii) | MIC (Escherichia coli) | MIC (Klebsiella pneumoniae) | CC50 (HEK293) | MIC (Pseudomonas aeruginosa [1]) | MIC (Cryptococcus neoformans) | MIC (Pseudomonas aeruginosa [2])

Cc1cccc(NC(=O)Cn2nc3c(Sc4ccc(C)cc4C)nccn3c2=O)c1
> 32 µg/mL: MIC (Candida albicans) | MIC (Staphylococcus aureus) | MIC (Acinetobacter baumannii) | MIC (Escherichia coli) | MIC (Klebsiella pneumoniae) | CC50 (HEK293) | MIC (Cryptococcus neoformans) | MIC (Pseudomonas aeruginosa [2])
